{"source": "paper PMC7844219", "about": "“Antifibrotic effect of novel neutrophil gelatinase-associated lipocalin inhibitors in cardiac and renal disease models” (Scientific Reports, 2021)", "key": {"[1]": {"system": "isolated hepatocytes from swiss mice", "experiment": "Hepatotoxicity, thiazolyl blue tetrazolium bromide (MTT) colorimetric assay", "type": "cell-based, mouse", "procedure": "(§1) Several parameters have been evaluated to determine ADME-Tox profile of the compounds. Two specific toxicity assays have been performed to assess hepatoxicity and cardiotoxicity. Hepatotoxicity was evaluated in isolated hepatocytes from swiss mice and determined by the thiazolyl blue tetrazolium bromide colorimetric assay (sigma, St Louis, MO, USA). Cardiotoxicity was evaluated using the commercially available Predictor hERG fluorescence polarization kit (Thermo Fisher Scientific, Illinois, USA). Several absorption, distribution, metabolism, and excretion (ADME) assays have been carried out. The following experiments were undertaken: stability in human microsomes, binding to human plasma protein, and CYP3A4 inhibition assay (Vivid CYP3A4 assay, Thermo Fisher Scientific, Illinois, USA). Physico-chemical properties were also assessed such as aqueous solubility and chemical stability."}, "Chemical stability": {"experiment": "Chemical stability", "type": "physicochemical", "conditions": "Table S5", "procedure": "as §1"}, "hNGAL [2]": {"target": "T1, hNGAL (Homo sapiens, UniProt P80188)", "T1 construct": "purchased R&D Systems", "T1 sequence (P80188 21-198)": "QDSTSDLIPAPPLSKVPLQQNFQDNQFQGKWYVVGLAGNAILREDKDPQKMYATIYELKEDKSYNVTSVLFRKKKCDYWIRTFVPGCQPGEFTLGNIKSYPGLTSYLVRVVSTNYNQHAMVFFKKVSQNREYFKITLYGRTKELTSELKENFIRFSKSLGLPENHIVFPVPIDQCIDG", "experiment": "hNGAL-induced intracellular profibrotic protein levels in human cardiac fibroblasts (Western blot)", "type": "cell-based", "design": "% inhibition versus hNGAL on Col I protein level / % inhibition versus hNGAL on Col III protein level / % inhibition versus hNGAL on Fibronectin protein level / % inhibition versus hNGAL on Galectin 3 protein level: concentration or dose not given beside the values", "procedure": "(§2) Primary human cardiac fibroblasts (HCF) were obtained from Promocell (Heidelberg, Germany) and maintained in Fibroblast Media 3 following manufacturer’s instructions (Promocell). Cells were used between passages 5 and 7. Cells were stimulated with recombinant hNGAL (500 ng/mL, R&D Systems) or with TGFβ (10 ng/mL, R&D Systems) for 24 h. To assess cell proliferation the MTT test was used following provider’s instructions (Roche). For protein analysis. Primary Mouse Kidney Fibroblasts (MKF) were isolated from Wild Type (WT) mice. Briefly, 8 weeks old mice were sacrificed by cervical dislocation and kidneys were cleaned and rinsed in cold DPBS (Dulbecco's Phosphate-Buffered Saline). The renal cortex was minced and incubated in Dulbecco’s modified eagle medium/Nutrient mixture F-12 (DMEM/F12, Sigma) containing 1 mg/mL collagenase A (Roche) during 25 min at 37 °C. The digestion was inactivated by adding culture medium (DMEM/F12 + 10% FBS) then the cell suspension was passed through a 100-μm cell strainer. After centrifugation, the pellet (containing MKF) was diluted with culture medium then plated in 75 cm^2 culture flask. After 24 h MKF were washed with DPBS before replacement of fresh culture medium. Thereafter, culture medium was changed every 48 h. Once 70–80% confluent, MKF were trypsinized and plated in 12 or 6-well plates. For experimental use, MKF were starved with culture medium containing only 3% FBS. MKF were treated with mNGAL (500 ng/mL, R&D Systems) or with TGFβ (10 ng/mL, R&D Systems) for 6 h for gene expression analysis.\nTotal protein aliquots of 20 μg were prepared from cardiac homogenates and HCF and electrophoresed on SDS polyacrylamide gels and transferred to Hybond-c Extra nitrocellulose membranes (Amersham Biosciences). Membranes were incubated with primary antibodies for: Collagen I (Santa Cruz; dilution 1:500), Collagen type III (Santa Cruz; dilution 1:500), fibronectin (Millipore, 1:500), Galectin-3 (Thermo, 1:1000), α-SMA (Sigma, 1:1000), CTGF (Santa Cruz, 1:200), CD68 (Abcam, 1:500), CD80 (Santa Cruz, 1:500), CD86 (Santa Cruz, 1:500). […] After densitometric analyses, optical density values were expressed as arbitrary units. Results are expressed as an n-fold increase over the values of the control group in densitometric arbitrary units."}, "hNGAL [3]": {"target": "T1, hNGAL", "experiment": "hNGAL-induced IL6 and Col I secretion in human cardiac fibroblasts (ELISA)", "type": "cell-based", "design": "% inhibition versus hNGAL on IL-6 secretion: concentration or dose not given beside the values", "conditions": "for IL-6 secretion: hNGAL-treated human cardiac fibroblasts, mean ± SEM", "procedure": "as §2\nIL6 and collagen type I concentrations were measured in cardiac tissue and cell supernatants by ELISA according to the manufacturer's instructions (R&D Systems)."}, "Aqueous solubility": {"experiment": "Aqueous solubility", "type": "physicochemical", "procedure": "as §1"}, "CYP3A4": {"target": "T2, CYP3A4 (Homo sapiens, UniProt P08684)", "T2 construct": "purchased Thermo Fisher Scientific", "T2 sequence (P08684 whole entry)": "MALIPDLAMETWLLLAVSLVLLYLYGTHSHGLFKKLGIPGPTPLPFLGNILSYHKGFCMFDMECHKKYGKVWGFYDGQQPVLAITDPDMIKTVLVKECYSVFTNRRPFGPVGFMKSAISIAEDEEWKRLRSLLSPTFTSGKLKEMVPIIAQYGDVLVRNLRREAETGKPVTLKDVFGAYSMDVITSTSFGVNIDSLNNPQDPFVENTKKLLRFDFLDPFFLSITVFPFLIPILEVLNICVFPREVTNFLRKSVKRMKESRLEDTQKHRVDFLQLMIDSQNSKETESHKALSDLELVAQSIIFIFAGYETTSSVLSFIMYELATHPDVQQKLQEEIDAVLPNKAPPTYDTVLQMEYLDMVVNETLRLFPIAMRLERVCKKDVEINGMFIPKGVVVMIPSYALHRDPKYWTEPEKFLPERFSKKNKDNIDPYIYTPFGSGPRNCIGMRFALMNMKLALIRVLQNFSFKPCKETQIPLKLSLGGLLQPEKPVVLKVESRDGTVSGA", "experiment": "CYP3A4 inhibition assay (Vivid CYP3A4 assay)", "type": "in vitro ADME", "procedure": "as §1"}, "hERG channel": {"target": "T3, hERG channel (Homo sapiens, UniProt Q12809)", "T3 construct": "purchased Thermo Fisher Scientific", "T3 sequence (Q12809 whole entry)": "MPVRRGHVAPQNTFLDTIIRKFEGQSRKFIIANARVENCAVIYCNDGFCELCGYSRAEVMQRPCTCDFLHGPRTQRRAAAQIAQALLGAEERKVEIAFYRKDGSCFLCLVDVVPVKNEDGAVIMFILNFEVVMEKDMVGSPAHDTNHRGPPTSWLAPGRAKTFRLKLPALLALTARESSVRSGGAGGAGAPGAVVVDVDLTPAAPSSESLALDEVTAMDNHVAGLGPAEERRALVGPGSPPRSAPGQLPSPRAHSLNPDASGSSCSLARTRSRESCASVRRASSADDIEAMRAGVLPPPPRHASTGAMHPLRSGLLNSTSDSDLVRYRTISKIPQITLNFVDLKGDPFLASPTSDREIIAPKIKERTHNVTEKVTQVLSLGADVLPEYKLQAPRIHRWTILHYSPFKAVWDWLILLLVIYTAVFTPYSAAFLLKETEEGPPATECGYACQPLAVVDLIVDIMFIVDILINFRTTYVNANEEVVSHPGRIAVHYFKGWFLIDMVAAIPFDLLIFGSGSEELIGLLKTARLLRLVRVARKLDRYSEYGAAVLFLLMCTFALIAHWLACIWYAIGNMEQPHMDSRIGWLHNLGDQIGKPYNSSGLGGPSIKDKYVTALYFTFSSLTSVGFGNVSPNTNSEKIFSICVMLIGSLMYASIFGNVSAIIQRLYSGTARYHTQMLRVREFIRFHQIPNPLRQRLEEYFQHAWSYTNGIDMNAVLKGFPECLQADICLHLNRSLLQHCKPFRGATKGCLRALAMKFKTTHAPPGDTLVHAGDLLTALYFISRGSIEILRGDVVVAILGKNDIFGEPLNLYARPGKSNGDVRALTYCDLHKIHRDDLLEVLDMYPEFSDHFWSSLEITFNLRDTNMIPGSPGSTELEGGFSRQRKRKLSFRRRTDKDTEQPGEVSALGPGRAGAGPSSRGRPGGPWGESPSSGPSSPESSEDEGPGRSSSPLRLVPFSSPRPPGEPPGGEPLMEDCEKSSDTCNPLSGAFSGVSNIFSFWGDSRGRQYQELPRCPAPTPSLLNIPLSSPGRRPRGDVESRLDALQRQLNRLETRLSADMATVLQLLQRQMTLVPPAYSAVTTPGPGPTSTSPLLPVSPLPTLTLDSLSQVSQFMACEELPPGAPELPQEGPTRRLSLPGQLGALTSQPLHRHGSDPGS", "experiment": "Cardiotoxicity, Predictor hERG fluorescence polarization kit", "type": "binding", "procedure": "as §1"}, "human plasma protein": {"system": "human plasma protein", "experiment": "Binding to human plasma protein", "type": "in vitro ADME", "procedure": "as §1"}, "hNGAL [4]": {"target": "T1, hNGAL", "experiment": "Cell proliferation (MTT) in hNGAL-treated human cardiac fibroblasts", "type": "cell-based", "procedure": "as §2\nCell proliferation was assessed using the MTT Proliferation Assay (Sigma)."}, "[5]": {"conditions": "Table S2, human cardiac fibroblasts"}, "[6]": {"conditions": "10 µM, human cardiac fibroblasts, Fig. 1C"}, "[7]": {"conditions": "Table S4, second generation compounds and parents, Control 1.00, NGAL 1.45"}, "[8]": {"conditions": "Table S4, second generation compounds and parents, human cardiac fibroblasts"}}}
{"compound": "CCS(=O)(=O)c1ccc2oc(SCc3cn4c(C)cc(C)nc4n3)nc2c1", "note": "[GPZ058225]", "values": [{"measurement": "Hepatotoxicity (MTT)", "setting": "[1]", "value": "> 0.1", "unit": "mM"}, {"measurement": "Hepatotoxicity", "setting": "[1]; Table S5, MTT", "value": "> 100", "unit": "µM"}, {"measurement": "Chemical Stability %", "setting": "Chemical stability", "value": 92.2, "unit": "%"}, {"measurement": "hNGAL-induced expression of intracellular profibrotic proteins (Col I, Col III, fibronectin, Gal3), in words", "setting": "hNGAL [2]; 10 µM, human cardiac fibroblasts, Fig. 1D", "value": "blocked"}, {"measurement": "Col III synthesis (protein level)", "setting": "hNGAL [2]; Table S2, hNGAL-treated human cardiac fibroblasts, Control 1.0, NGAL 1.67, mean ± SEM", "value": "1.05 ± 0.1"}, {"measurement": "Fibronectin synthesis (protein level)", "setting": "hNGAL [2]; Table S2, hNGAL-treated human cardiac fibroblasts, Control 1.0, NGAL 1.8, mean ± SEM", "value": "0.62 ± 0.1"}, {"measurement": "Col I synthesis (protein level)", "setting": "hNGAL [2]; Table S2, hNGAL-treated human cardiac fibroblasts, Control 1.0, NGAL 2.03, mean ± SEM", "value": "1.27 ± 0.1"}, {"measurement": "Galectin-3 synthesis (protein level)", "setting": "hNGAL [2]; Table S2, hNGAL-treated human cardiac fibroblasts, Control 1.0, NGAL 2.1, mean ± SEM", "value": "1.0 ± 0.2"}, {"measurement": "% inhibition versus hNGAL on Col I protein level", "setting": "hNGAL [2]; [5]", "value": 37.5, "unit": "%"}, {"measurement": "% inhibition versus hNGAL on Col III protein level", "setting": "hNGAL [2]; [5]", "value": 37.1, "unit": "%"}, {"measurement": "% inhibition versus hNGAL on Fibronectin protein level", "setting": "hNGAL [2]; [5]", "value": 65.5, "unit": "%"}, {"measurement": "% inhibition versus hNGAL on Galectin 3 protein level", "setting": "hNGAL [2]; [5]", "value": 52.3, "unit": "%"}, {"measurement": "Increase in IL6 secretion induced by NGAL", "setting": "hNGAL [3]; 1 µM, human cardiac fibroblasts, Fig. S3", "value": "did not prevent"}, {"measurement": "NGAL-induced Col I secretion, in words", "setting": "hNGAL [3]; [6]", "value": "fully inhibited"}, {"measurement": "NGAL-induced IL6 secretion, in words", "setting": "hNGAL [3]; [6]", "value": "fully inhibited"}, {"measurement": "IL-6 secretion", "setting": "hNGAL [3]; Table S1, first generation compounds, Control 1.0 ± 0.1, NGAL 2.21 ± 0.2", "value": "0.99 ± 0.3"}, {"measurement": "% inhibition versus hNGAL on IL-6 secretion", "setting": "hNGAL [3]; Table S1, first generation compounds, human cardiac fibroblasts", "value": 55.2, "unit": "%"}, {"measurement": "IL-6 secretion", "setting": "hNGAL [3]; [7]", "value": "0.72 ± 0.02"}, {"measurement": "% inhibition versus hNGAL on IL-6 secretion", "setting": "hNGAL [3]; [8]", "value": 50.4, "unit": "%"}, {"measurement": "Inhibitor effect on hNGAL-induced IL6 secretion, in words", "setting": "hNGAL [3]; human cardiac fibroblasts, text on Tables S1 and S4", "value": "important inhibitor effect"}, {"measurement": "Solubility in aqueous buffers, in words", "setting": "Aqueous solubility", "value": "mild solubility problems"}, {"measurement": "Solubility test", "setting": "Aqueous solubility", "value": 63, "unit": "%"}, {"measurement": "Aquous solubility %", "setting": "Aqueous solubility; Table S5", "value": 63.46, "unit": "%"}, {"measurement": "CYP3A4 enzyme activity inhibited in a competition assay", "setting": "CYP3A4", "value": 32, "unit": "%"}, {"measurement": "CyP 3A4 Inhibition % (100= no inhibition)", "setting": "CYP3A4; Table S5", "value": "68.07 ± 1.52", "unit": "%"}, {"measurement": "Cardiotoxicity (hERG predictor assay), in words", "setting": "hERG channel", "value": "did not block the hERG channel"}, {"measurement": "Plasma protein binding (PPB), in words", "setting": "human plasma protein", "value": "within an acceptance range"}, {"measurement": "hPPB%", "setting": "human plasma protein; Table S5, human plasma protein binding", "value": 89.11, "unit": "%"}, {"measurement": "hNGAL-induced cell proliferation, in words", "setting": "hNGAL [4]; 10 µM, Fig. 1E", "value": "blocked"}, {"measurement": "Dose–response on proliferation induced by NGAL", "setting": "hNGAL [4]; Fig. S2", "value": "able to block the proliferative effects of NGAL at 1 and 10 µM, but not at lower concentrations"}]}
{"compound": "CC(=O)c1cccc(S(=O)(=O)NCc2ccccc2-c2ccsc2)c1", "note": "[GPZ863205]", "values": [{"measurement": "IL-6 secretion", "setting": "hNGAL [3]; [7]", "value": "0.93± 0.03"}, {"measurement": "% inhibition versus hNGAL on IL-6 secretion", "setting": "hNGAL [3]; [8]", "value": 35.9, "unit": "%"}]}
{"compound": "O=C(Nc1nc2cc(F)c(F)cc2s1)c1cn2cccnc2n1", "note": "[GPZ278618]", "values": [{"measurement": "IL-6 secretion", "setting": "hNGAL [3]; [7]", "value": "0.86± 0.02"}, {"measurement": "% inhibition versus hNGAL on IL-6 secretion", "setting": "hNGAL [3]; [8]", "value": 40.1, "unit": "%"}]}
{"compound": "N#Cc1cccc(S(=O)(=O)NCc2cccc(-n3cccn3)c2)c1", "note": "[GPZ778195]", "values": [{"measurement": "IL-6 secretion", "setting": "hNGAL [3]; [7]", "value": "0.88± 0.04"}, {"measurement": "% inhibition versus hNGAL on IL-6 secretion", "setting": "hNGAL [3]; [8]", "value": 39.3, "unit": "%"}]}
{"compound": "CCN1CCN(Cc2ccccc2CNS(=O)(=O)c2cccc(C(C)=O)c2)CC1", "note": "[GPZ913629]", "values": [{"measurement": "IL-6 secretion", "setting": "hNGAL [3]; [7]", "value": "0.93± 0.02"}, {"measurement": "% inhibition versus hNGAL on IL-6 secretion", "setting": "hNGAL [3]; [8]", "value": 35.9, "unit": "%"}]}
{"compound": "Cc1cc(C)n2cc(CSc3nc4ccccc4[nH]3)nc2n1", "note": "[GPZ743042]", "values": [{"measurement": "IL-6 secretion", "setting": "hNGAL [3]; [7]", "value": "0.94 ± 0.03"}, {"measurement": "% inhibition versus hNGAL on IL-6 secretion", "setting": "hNGAL [3]; [8]", "value": 35.2, "unit": "%"}]}
{"compound": "CC(=O)c1cccc(S(=O)(=O)NCc2ccccc2Cn2cccn2)c1", "note": "[GPZ505884]", "values": [{"measurement": "IL-6 secretion", "setting": "hNGAL [3]; [7]", "value": "0.83± 0.02"}, {"measurement": "% inhibition versus hNGAL on IL-6 secretion", "setting": "hNGAL [3]; [8]", "value": 42.8, "unit": "%"}]}
{"compound": "CC(=O)c1cccc(S(=O)(=O)NCc2ccccc2-c2ccc(CN(C)C)cc2)c1", "note": "[GPZ642292]", "values": [{"measurement": "IL-6 secretion", "setting": "hNGAL [3]; [7]", "value": "0.64± 0.02"}, {"measurement": "% inhibition versus hNGAL on IL-6 secretion", "setting": "hNGAL [3]; [8]", "value": 55.9, "unit": "%"}]}
{"compound": "CC(=O)c1ccc(S(=O)(=O)Nc2ccccc2-n2cccn2)cc1", "note": "[GPZ478519]", "values": [{"measurement": "IL-6 secretion", "setting": "hNGAL [3]; [7]", "value": "0.69± 0.02"}, {"measurement": "% inhibition versus hNGAL on IL-6 secretion", "setting": "hNGAL [3]; [8]", "value": 52.4, "unit": "%"}]}
